Patent publication US5352707A, “Method for treating airway congestion” (Harbor Branch Oceanographic Institution, Inc., priority 1992, dated 1994)
pIC50: −log10 of the molar value.

Experiments:
guinea pig ileum = assay: Guinea Pig Ileum Assay (electrical field stimulated contractions; H3 agonism/antagonism vs Rα-methylhistamine); assay type: cell-based; conditions: for Guinea Pig Ileum: at 1 μg/ml, 1 μM chlorpheniramine in Tyrodes buffer
Procedure: Male guinea pigs (450-500 g) were sacrificed by cervical dislocation. Portions of the ileum (20-40 cm) were removed and placed in Tyrodes solution (NaCl, 8.0; KCl, 0.2; MgCl2.6H2 O, 0.2; CaCl2. 0.13; NaH2 PO4. 0.06; dextrose, 1.0; NaHCO3, 1.0 g/l). The ilea were cut into 2.5 cm segments, mounted between platinum wire coaxial electrodes and placed in water-jacketed organ baths containing 25 ml of the Tyrodes solution. Bath fluid temperature was maintained at 37° C. and aerated with 95% 02-5%CO2. The muscles were suspended from isometric force transducers (Grass FT023C) under 0.3 g resting tension. Contractions were amplified on a Buxco tension monitor and recorded on a Harvard polygraph. Monophasic rectangular-wave electrical pulses were delivered to the tissues every 60 seconds from a stimulator (model S-48, Grass Instruments Co.). The ileum segments were maximally stimulated with 3 volts at 40 Hz frequency and 1 mseconds duration in 1 pulse train every 60 seconds. The duration of 1 msecond was then decreased by 0.1 msecond until the size of the contraction reached 80% of the maximal response. Once this 80% response was determined it was evoked every 60 seconds throughout the experiment. All experiments were conducted with 1μM of chlorpheniramine present in the Tyrodes buffer.
Rα-methylhistamine inhibits the electrical field stimulated contractions of the guinea pig ileum and was used as the H3 agonist reference standard. H3 agonists were studied for their ability to inhibit the electrical field stimulated contractions and their activity was expressed as a percentage of the maximum Rα-methylhistamine effect. Agonists were tested by addition of logarithmically increasing doses to the bath fluid at intervals of 1 minute. […]
Relative potency for agonists was determined from the pD2 calculations (Furchgott, R.F., The Pharmacology of Vascular Smooth Muscle. Pharm. Rev. 7, 183, 1955.) on 5 separate tissues. Relative potency for antagonists was determined from pA2 calculations (See Furchgott, above) on 15 separate tissues.

H3 receptor = target: T1, H3 receptor (Cavia porcellus, UniProt Q9JI35); assay: H3 Receptor Binding Assay ([3H]R-α-methylhistamine, guinea pig brain membranes); conditions: 3 nM [3H]R-α-methylhistamine, 30° C., 30 minutes
T1 construct: The source of the H3 receptors in this experiment was guinea pig brain; from tissue; host or cells: guinea pig brain membranes
T1 sequence (Q9JI35 whole entry): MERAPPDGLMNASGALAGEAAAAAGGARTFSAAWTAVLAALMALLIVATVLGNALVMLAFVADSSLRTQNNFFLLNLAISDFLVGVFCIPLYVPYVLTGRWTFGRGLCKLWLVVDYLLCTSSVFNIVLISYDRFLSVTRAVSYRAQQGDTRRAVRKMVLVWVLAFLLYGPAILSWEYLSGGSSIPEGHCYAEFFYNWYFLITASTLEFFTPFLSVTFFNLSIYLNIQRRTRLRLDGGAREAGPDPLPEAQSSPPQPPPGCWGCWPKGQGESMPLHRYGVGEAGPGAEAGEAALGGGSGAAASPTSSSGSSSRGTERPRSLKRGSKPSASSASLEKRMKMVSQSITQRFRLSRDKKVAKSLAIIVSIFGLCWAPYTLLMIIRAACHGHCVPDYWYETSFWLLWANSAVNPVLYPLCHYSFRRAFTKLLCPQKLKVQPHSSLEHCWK
Procedure: The source of the H3 receptors in this experiment was guinea pig brain. The animals used weighed 400-600 g. The tissue was homogenized using a Polytron in a solution of 50 mM Tris, pH 7.5. The final concentration of tissue in the homogenization buffer was 10% w/v. The homogenates were centrifuged at 1000×g for 10 minutes in order to remove clumps of tissue and debris. The resulting supernatants were then centrifuged at 50,000×g for 20 minutes in order to sediment the membranes, which were next washed 3 times in homogenization buffer (50,000×g for 20 minutes each). The membranes were frozen and stored at -70° C. until needed.
All compounds to be tested were dissolved in DMSO (dimethyl sulfoxide) and then diluted into the binding buffer (50 mM Tris, pH 7.5) such that the final concentration was 2 μg/mL with 0.1% DMSO. Membranes were then added (400 μg of protein) to the reaction tubes. The reaction was started by the addition of 3 nM [^3 H]R-α-methylhistamine (8.8 Ci/mmol) and incubated at 30° C. for 30 minutes. Bound ligand was separated from unbound ligand by filtration, and the amount of radioactive ligand bound to the membranes was quantitated by liquid scintillation spectrometry. All incubations were performed in duplicate and the standard error was less than 10% in all instances.

| Compound | Guinea Pig Ileum (guinea pig ileum) | H3 receptor Binding IC50 (H3 receptor) [mg/L] | activity on the guinea pig ileum (guinea pig ileum) | pIC50 (H3 receptor) |
| --- | --- | --- | --- | --- |
| COC1=C(Br)C(O)C2(C=C1Br)CC(C(=O)NCCc1c[nH]cn1)=NO2 (centres unmarked) [Aerophobin-1] | not active | 4.3 |  |  |
| CN(C)CCCOc1c(Br)cc(CCN(C)C)cc1Br [Aplysamine-1] | antagonist |  | active on the guinea pig ileum as an H3 -antagonist | 6.08 |
